This is an account of results in ChEMBL document CHEMBL3639243, “Oxadiazole derivative having endothelial lipase inhibitory activity” (2014).

pIC50: −log10 of the molar value.

The experiment concerns the target T1, Endothelial lipase (Homo sapiens, UniProt Q9Y5X9).
T1 sequence (Q9Y5X9 whole entry): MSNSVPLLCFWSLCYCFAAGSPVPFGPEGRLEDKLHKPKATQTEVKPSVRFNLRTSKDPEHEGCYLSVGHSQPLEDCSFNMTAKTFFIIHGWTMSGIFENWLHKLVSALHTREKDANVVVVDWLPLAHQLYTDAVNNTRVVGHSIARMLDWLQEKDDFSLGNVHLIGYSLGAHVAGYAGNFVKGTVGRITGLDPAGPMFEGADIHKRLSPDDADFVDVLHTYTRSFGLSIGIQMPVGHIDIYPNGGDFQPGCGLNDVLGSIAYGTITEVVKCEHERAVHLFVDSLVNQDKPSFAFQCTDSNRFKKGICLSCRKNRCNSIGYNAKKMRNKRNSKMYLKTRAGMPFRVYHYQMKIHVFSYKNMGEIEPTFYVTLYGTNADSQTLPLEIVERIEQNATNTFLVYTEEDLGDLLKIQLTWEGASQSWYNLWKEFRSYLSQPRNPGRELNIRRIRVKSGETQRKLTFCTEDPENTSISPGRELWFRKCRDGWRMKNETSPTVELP
Put plainly: Inhibition Assay: After the present compound dissolved in DMSO was added to become 0.5% DMSO to the reaction buffer consisting of 20 mM tris hydrochloric acid (pH7.4), bovine serum albumin (0.5%), calcium chloride (4 mM), sodium chloride (150 mM) and human HDL (2 mg/ml), the EL enzyme was added (total volume was 20 μl). After 4-hour reaction at 37 C., non-esterified fatty acid (NEFA) generated from HDL by EL was measured with a commercially available assay kit and the amount of NEFA was used as an index of enzyme activity. Considering the enzyme activity without the inhibitor as a control value, the inhibition rate of each concentration of the present compound was calculated, and 50% inhibitory concentration (IC50 value) was calculated from an inhibition curve.

Turning to `N#CC1(NC(=O)Cc2nnc(Cc3nc4ccc(-c5ccc(Cl)s5)c(F)c4s3)o2)CC1`, the negative-log IC50 (pIC50) (in general, −log10 of the IC50, conventionally taken in molar units) was 7.85.
